What all share (assay type): biochemical
For one test, the target named is T1, hepsin (Homo sapiens, UniProt P05981).
T1 construct: purchased R&D Systems 4776-SE-010
The experiment in a line: Fluorogenic kinetic enzyme inhibitor assay, hepsin.

The target in a further test is T2, HGFA (Homo sapiens, UniProt Q04756).
T2 construct: purchased R&D Systems 1514-SE-010
T2 sequence (Q04756 408-655 limits assumed): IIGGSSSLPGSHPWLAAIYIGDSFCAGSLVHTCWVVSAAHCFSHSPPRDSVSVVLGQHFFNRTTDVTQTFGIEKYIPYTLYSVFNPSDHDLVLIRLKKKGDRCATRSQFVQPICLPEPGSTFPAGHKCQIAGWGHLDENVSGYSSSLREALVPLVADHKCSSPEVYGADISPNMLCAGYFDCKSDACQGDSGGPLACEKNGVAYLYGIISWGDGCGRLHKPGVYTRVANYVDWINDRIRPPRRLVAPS
T2 sequence (Q04756 373-407 partner limits assumed): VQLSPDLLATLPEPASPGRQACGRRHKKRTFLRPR
Description: Fluorogenic kinetic enzyme inhibitor assay, HGFA. The note with it: read-out: HGFA IC50.

Another test has as its target T3, matriptase (Homo sapiens, UniProt Q9Y5Y6).
T3 construct: purchased R&D Systems 3946-SEB-010
T3 sequence (Q9Y5Y6 615-855 limits assumed): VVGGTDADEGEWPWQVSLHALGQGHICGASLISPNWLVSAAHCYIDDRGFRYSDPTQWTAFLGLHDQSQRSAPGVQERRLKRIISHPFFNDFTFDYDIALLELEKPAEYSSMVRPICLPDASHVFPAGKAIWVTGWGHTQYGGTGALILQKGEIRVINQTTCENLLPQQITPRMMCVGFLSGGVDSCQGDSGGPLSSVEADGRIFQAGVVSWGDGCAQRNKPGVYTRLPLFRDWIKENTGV
Description: Fluorogenic kinetic enzyme inhibitor assay, matriptase.

In the next test the target is TMPRSS2 (Homo sapiens, UniProt O15393). The experiment in a line: Fluorogenic kinetic enzyme inhibitor assay, TMPRSS2. On the set-up: purchased Cusabio Technology CSB-YP023924HU.

Where two headings read alike, the source gives them in different places. A value given as a limit tells only on which side of the number the result lay.

Sequence of TMPRSS2 (O15393 106-492 limits assumed): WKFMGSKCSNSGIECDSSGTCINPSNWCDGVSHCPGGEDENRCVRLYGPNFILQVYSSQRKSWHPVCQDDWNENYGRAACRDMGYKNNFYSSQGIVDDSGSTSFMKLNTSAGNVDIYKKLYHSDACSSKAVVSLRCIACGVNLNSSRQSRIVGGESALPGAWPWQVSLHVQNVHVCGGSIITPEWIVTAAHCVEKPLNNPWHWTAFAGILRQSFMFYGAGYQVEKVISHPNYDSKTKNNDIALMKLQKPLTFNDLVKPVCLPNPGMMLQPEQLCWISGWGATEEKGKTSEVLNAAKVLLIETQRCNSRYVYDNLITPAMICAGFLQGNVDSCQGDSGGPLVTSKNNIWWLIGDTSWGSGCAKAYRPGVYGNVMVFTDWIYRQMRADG
T1 sequence (P05981 163-417 limits assumed): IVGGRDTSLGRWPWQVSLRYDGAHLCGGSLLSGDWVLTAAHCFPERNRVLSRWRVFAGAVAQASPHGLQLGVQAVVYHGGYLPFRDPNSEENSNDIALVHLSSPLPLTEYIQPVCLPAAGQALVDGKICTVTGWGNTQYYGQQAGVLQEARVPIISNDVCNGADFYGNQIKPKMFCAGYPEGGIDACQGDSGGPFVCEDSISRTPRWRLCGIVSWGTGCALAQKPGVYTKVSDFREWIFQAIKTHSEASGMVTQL
T1 sequence (P05981 1-162 partner limits assumed): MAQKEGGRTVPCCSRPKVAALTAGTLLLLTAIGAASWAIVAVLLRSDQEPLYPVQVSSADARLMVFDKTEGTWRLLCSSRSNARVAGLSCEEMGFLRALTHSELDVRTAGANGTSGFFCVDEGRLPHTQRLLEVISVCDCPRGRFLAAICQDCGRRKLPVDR

By IC50 is commonly meant the concentration that inhibits the measured activity by half. Take `CC(=O)N[C@H]1Cc2ccc(cc2)OCCCC[C@@H](C(=O)N[C@@H](CCCNC(=N)N)C(=O)c2nc3ccccc3s2)NC(=O)[C@@H](Cc2c[nH]c3ccccc23)NC1=O` [8b]: the IC50 on hepsin (30 min incubation, Boc-QAR-AMC at Km, read-out: Hepsin IC50) turned out to be 0.54 nM; at HGFA, 3.3 nM.

In the case of `CC(=O)N[C@@H](CO)C(=O)N[C@@H](Cc1cncn1COCc1ccccc1)C(=O)N[C@@H](CC(C)C)C(=O)N[C@@H](CCCNC(=N)N)C(=O)c1nc2ccccc2s1` [MM4036-2, N-[(S)-1-[(1,3-benzothiazol-2-yl)carbonyl]-4-guanidinobutyl](S)-2-[(S)-2-[(S)-2-acetylamino-3-hydroxypropionylamino]-3-{1-[(benzyloxy)methyl]-5-imidazolyl}propionylamino]-4-methylvaleramide], the figures for the IC50 at matriptase, on hepsin (read-out: Hepsin IC50) and on HGFA were 77.7 nM, 2.81 nM and 1070 nM, respectively.

As to `C=CCOC(=O)CC[C@H](NC(=O)[C@@H]1CC2CCCCC2N1C(C)=O)C(=O)N[C@@H](Cc1ccc(F)cc1)C(=O)N[C@@H](CCCNC(=N)N)C(=O)c1nc2ccccc2s1` (stereo partly drawn) [MF1068, allyl (S)-4-[(2S)-1-acetyloctahydro-2H-indol-2-ylcarbonylamino]-4-[N-(S)-2-(p-fluorophenyl)-1-[N-(S)-1-[(1,3-benzothiazol-2-yl)carbonyl]-4-guanidinobutylcarbamoyl]ethylcarbamoyl]butyrate], the IC50 worked out at 0.375 nM on matriptase, 0.308 nM on hepsin (read-out: Hepsin IC50) and 0.083 nM on TMPRSS2 (read-out: TMPRSS2 IC50).

In the case of `C=CCOC(=O)CC[C@H](NC(=O)[C@H](CCC(C)C)NC(C)=O)C(=O)N[C@@H](Cc1ccc(F)cc1)C(=O)N[C@@H](CCCNC(=N)N)C(=O)c1nc2ccccc2s1` [MF1140, allyl (S)-4-[(S)-1-acetylamino-4-methylpentylcarbonylamino]-4-[N-(S)-2-(p-fluorophenyl)-1-[N-(S)-1-[(1,3-benzothiazol-2-yl)carbonyl]-4-guanidinobutylcarbamoyl]ethylcarbamoyl]butyrate], the IC50 against matriptase is 2.89 nM; against hepsin, 11 nM; against TMPRSS2, 0.001 nM.

Turning to `CCC(C)[C@H](NC(C)=O)C(=O)N[C@@H](CCSC)C(=O)N[C@@H](Cc1ccccc1)C(=O)N[C@H](CCCNC(=N)N)C(=O)c1nc2ccccc2s1` (stereo partly drawn) [MM4027-1, N-[(S)-3-(methylthio)-1-[N-(S)-1-[N-(R)-1-[(1,3-benzothiazol-2-yl)carbonyl]-4-guanidinobutylcarbamoyl]-2-phenylethylcarbamoyl]propyl](2S)-2-acetylamino-3-methylvaleramide], the IC50 at HGFA is 234 nM; on TMPRSS2 (read-out: TMPRSS2 IC50), 5.63 nM.

In the case of `N=C(N)NCCC[C@H](NC(=O)[C@H](Cc1cccc2ccccc12)NC(=O)OCC1c2ccccc2-c2ccccc21)C(=O)c1nc2ccccc2s1` [MF1144, (S)-2-(1-naphthyl)-1-[N-(S)-1-[(1,3-benzothiazol-2-yl)carbonyl]-4-guanidinobutylcarbamoyl] ethyl (9H-fluoren-9-yl)methanecarbamate], the results for the IC50 on matriptase (read-out: Matriptase IC50), at hepsin (read-out: Hepsin IC50) and at TMPRSS2 (read-out: TMPRSS2 IC50) were above 20000 nM, 1410 nM and above 20000 nM, respectively.

Consider `N=C(N)NCCC[C@H](NC(=O)[C@H](Cc1cn(Cc2ccccc2)cn1)NC(=O)OCC1c2ccccc2-c2ccccc21)C(=O)c1nc2ccccc2s1` [MF1158, (S)-2-(1-benzyl-4-imidazolyl)-1-[N-(S)-1-[(1,3-benzothiazol-2-yl)carbonyl]-4-guanidinobutylcarbamoyl] ethyl (9H-fluoren-9-yl)methanecarbamate], for which the values for the IC50 on matriptase (read-out: Matriptase IC50), at hepsin (read-out: Hepsin IC50) and at TMPRSS2 (read-out: TMPRSS2 IC50) were 39.9 nM, above 20000 nM and 68.7 nM, respectively.

In the case of `CC(=O)N1C(C(=O)N[C@@H](CCC(=O)OC2CCCCC2)C(=O)N[C@@H](Cc2ccc(F)cc2)C(=O)N[C@@H](CCCNC(=N)N)C(=O)c2nc3ccccc3s2)CC2CCCCC21` (stereo partly drawn) [MF1064, cyclohexyl (S)-4-[(2R)-1-acetyloctahydro-2H-indol-2-ylcarbonylamino]-4-[N-(S)-2-(p-fluorophenyl)-1-[N-(S)-1-[(1,3-benzothiazol-2-yl)carbonyl]-4-guanidinobutylcarbamoyl]ethylcarbamoyl]butyrate], the IC50 against matriptase was found to be 1.23 nM; on hepsin (read-out: Hepsin IC50) it was 0.831 nM; on TMPRSS2 (read-out: TMPRSS2 IC50), 0.004 nM.

Consider `N=C(N)NCCC[C@H](NC(=O)[C@H](Cc1ccccc1)NC(=O)[C@H](CCC(N)=O)NS(=O)(=O)c1ccccc1)C(=O)c1nc2ccccc2s1` [MF1101, N-[(S)-1-[N-(S)-1-[(1,3-benzothiazol-2-yl)carbonyl]-4-guanidinobutylcarbamoyl]-2-phenylethyl](S)-2-(phenylsulfonylamino) glutaramide], for which the IC50 on matriptase (read-out: Matriptase IC50) amounted to 2.89 nM; at hepsin (read-out: Hepsin IC50) it was 0.8 nM; at TMPRSS2 (read-out: TMPRSS2 IC50), 1.02 nM.

`CC(=O)N[C@@H](CO)C(=O)NCc1ccc(C(=O)N[C@@H](CC(C)C)C(=O)N[C@@H](CCCNC(=N)N)C(=O)c2nc3ccccc3s2)cc1` [AJS4016]: the figures for the IC50 on matriptase (read-out: Matriptase IC50), on hepsin (read-out: Hepsin IC50) and on TMPRSS2 (read-out: TMPRSS2 IC50) were 10.3 nM, 21.8 nM and 0.067 nM, respectively.

`N=C(N)NCCC[C@H](NC(=O)[C@H](Cc1csc2ccccc12)NC(=O)OCc1ccccc1)C(=O)c1nc2ccccc2s1` [MF1168, (S)-2-(1-benzothiophen-3-yl)-1-[N-(S)-1-[(1,3-benzothiazol-2-yl)carbonyl]-4-guanidinobutylcarbamoyl] ethyl-phenylmethanecarbamate]: the IC50 on matriptase (read-out: Matriptase IC50) was above 20000 nM; on hepsin (read-out: Hepsin IC50) it was above 20000 nM; on TMPRSS2 (read-out: TMPRSS2 IC50) it was 0.264 nM.

Turning to `N=C(N)NCCC[C@H](NC(=O)[C@H](Cc1cccs1)NC(=O)OCC1c2ccccc2-c2ccccc21)C(=O)c1nc2ccccc2s1` [MF1184, (S)-1-[N-(S)-1-[(1,3-benzothiazol-2-yl)carbonyl]-4-guanidinobutylcarbamoyl]-2-(2-thienyl)ethyl (9H-fluoren-9-yl)methanecarbamate], the IC50 at matriptase (read-out: Matriptase IC50) worked out at 58.7 nM; on hepsin (read-out: Hepsin IC50), 118 nM; on TMPRSS2 (read-out: TMPRSS2 IC50), 0.466 nM.

Turning to `N=C(N)NCCC[C@H](NC(=O)[C@H](CCCCOCc1ccccc1)NC(=O)OCC1c2ccccc2-c2ccccc21)C(=O)c1nc2ccccc2s1` [MF1165, (S)-5-(benzyloxy)-1-[N-(S)-1-[(1,3-benzothiazol-2-yl)carbonyl]-4-guanidinobutylcarbamoyl] pentyl (9H-fluoren-9-yl)methanecarbamate], the results for the IC50 on matriptase (read-out: Matriptase IC50), at hepsin (read-out: Hepsin IC50) and at TMPRSS2 (read-out: TMPRSS2 IC50) were 31.1 nM, 0.1 nM and 0.864 nM, respectively.

As for `N=C(N)NCCC[C@H](NC(=O)[C@H](CC1CCCCC1)NC(=O)OCC1c2ccccc2-c2ccccc21)C(=O)c1nc2ccccc2s1` [MF1142, (S)-2-cyclohexyl-1-[N-(S)-1-[(1,3-benzothiazol-2-yl)carbonyl]-4-guanidinobutylcarbamoyl] ethyl (9H-fluoren-9-yl)methanecarbamate], the values for the IC50 at matriptase (read-out: Matriptase IC50), at hepsin (read-out: Hepsin IC50) and on TMPRSS2 (read-out: TMPRSS2 IC50) were 2810 nM, 2390 nM and 0.04 nM, respectively.

In the case of `CCC(C)[C@H](NC(C)=O)C(=O)N[C@H](Cc1cc2ccccc2[nH]1)C(=O)N[C@@H](Cc1ccccc1)C(=O)N[C@@H](CCCNC(=N)N)C(=O)c1nc2ccccc2s1` (stereo partly drawn) [MM4038, N-[(R)-2-(2-indolyl)-1-[N-(S)-1-[N-(S)-1-[(1,3-benzothiazol-2-yl)carbonyl]-4-guanidinobutylcarbamoyl]-2-phenylethylcarbamoy1]ethyl](2S)-2-acetylamino-3-methylvaleramide], the values for the IC50 at hepsin (read-out: Hepsin IC50), at HGFA and on TMPRSS2 (read-out: TMPRSS2 IC50) were 12.2 nM, 66.2 nM and 0.04 nM, respectively.

For the compound `N=C(N)NCCC[C@H](NC(=O)[C@H](Cc1cccc(Cl)c1)NC(=O)OCC1c2ccccc2-c2ccccc21)C(=O)c1nc2ccccc2s1` [MF1134, (S)-2-(m-chlorophenyl)-1-[N-(S)-1-[(1,3-benzothiazol-2-yl)carbonyl]-4-guanidinobutylcarbamoyl] ethyl (9H-fluoren-9-yl)methanecarbamate], the IC50 was above 20000 nM on matriptase (read-out: Matriptase IC50), 1630 nM at hepsin (read-out: Hepsin IC50) and 6.3 nM on TMPRSS2 (read-out: TMPRSS2 IC50).

For `N=C(N)NCCC[C@H](NC(=O)[C@H](Cc1cccc(F)c1)NC(=O)OCC1c2ccccc2-c2ccccc21)C(=O)c1nc2ccccc2s1` [MF1141, (S)-2-(m-fluorophenyl)-1-[N-(S)-1-[(1,3-benzothiazol-2-yl)carbonyl]-4-guanidinobutylcarbamoyl] ethyl (9H-fluoren-9-yl)methanecarbamate], the IC50 on matriptase (read-out: Matriptase IC50) is 1140 nM; at hepsin (read-out: Hepsin IC50), 346 nM; on TMPRSS2 (read-out: TMPRSS2 IC50), 12.8 nM.

Take `CC(=O)N[C@@H](CCC(C)C)C(=O)N[C@@H](CCC(=O)OC1CCCCC1)C(=O)N[C@@H](Cc1ccc(F)cc1)C(=O)N[C@@H](CCCNC(=N)N)C(=O)c1nc2ccccc2s1` [MF1125, cyclohexyl (S)-4-[(S)-1-acetylamino-4-methylpentylcarbonylamino]-4-[N-(S)-2-(p-fluorophenyl)-1-[N-(S)-1-[(1,3-benzothiazol-2-yl)carbonyl]-4-guanidinobutylcarbamoyl]ethylcarbamoyl]butyrate]: the IC50 at matriptase came to 3.05 nM; on hepsin, 3.5 nM; at TMPRSS2 it was 0.085 nM.

Source of the values: patent US20250171495A1, “MUTLI-TARGETED SERINE PROTEASE INHIBITORS FOR TREATMENT OF CANCER AND VIRAL INFECTION” (Washington University, priority 2023, published 2025).
